The record followed here is ChEMBL document CHEMBL1129057, “Structure-based alignment and comparative molecular field analysis of acetylcholinesterase inhibitors” (J Med Chem, 1996).

pIC50: −log10 of the molar value.

In general, pIC50 refers to the IC50 on a negative log10 scale, so that one unit is a factor of ten. Read a low pIC50 as a large IC50.

The target in experiment [1] is Acetylcholinesterase (Electrophorus electricus, UniProt O42275).
Description: (§1) Inhibitory activity against Acetylcholinesterase
Experiment [2] concerns the target T1, Acetylcholinesterase (Torpedo californica, UniProt P04058). Set-up: species or system Tetronarce californica.
Description: as §1
Experiment [3] concerns the target T1, Acetylcholinesterase.
Description: as §1
Experiment [4] has as its target Acetylcholinesterase (Homo sapiens, UniProt P22303).
Description: as §1

Chain of Acetylcholinesterase (Electrophorus electricus, UniProt O42275) (O42275 whole entry): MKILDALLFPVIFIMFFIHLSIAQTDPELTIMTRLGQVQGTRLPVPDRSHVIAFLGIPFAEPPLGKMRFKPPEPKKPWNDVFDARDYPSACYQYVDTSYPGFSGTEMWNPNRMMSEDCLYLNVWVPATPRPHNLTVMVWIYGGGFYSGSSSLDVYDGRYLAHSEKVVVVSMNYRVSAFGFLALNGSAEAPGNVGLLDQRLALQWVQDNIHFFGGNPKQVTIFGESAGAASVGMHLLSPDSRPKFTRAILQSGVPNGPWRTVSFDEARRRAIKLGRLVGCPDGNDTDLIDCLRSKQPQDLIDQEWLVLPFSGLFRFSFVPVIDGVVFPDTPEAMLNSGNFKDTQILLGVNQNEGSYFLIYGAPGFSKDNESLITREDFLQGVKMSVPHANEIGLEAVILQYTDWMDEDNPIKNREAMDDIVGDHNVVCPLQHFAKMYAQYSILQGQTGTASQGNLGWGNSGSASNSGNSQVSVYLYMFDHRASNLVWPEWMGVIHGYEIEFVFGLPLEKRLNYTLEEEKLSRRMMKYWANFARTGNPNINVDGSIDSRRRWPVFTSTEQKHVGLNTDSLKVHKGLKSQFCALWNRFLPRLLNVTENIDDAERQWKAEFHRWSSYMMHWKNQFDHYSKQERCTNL
T1 sequence (P04058 whole entry): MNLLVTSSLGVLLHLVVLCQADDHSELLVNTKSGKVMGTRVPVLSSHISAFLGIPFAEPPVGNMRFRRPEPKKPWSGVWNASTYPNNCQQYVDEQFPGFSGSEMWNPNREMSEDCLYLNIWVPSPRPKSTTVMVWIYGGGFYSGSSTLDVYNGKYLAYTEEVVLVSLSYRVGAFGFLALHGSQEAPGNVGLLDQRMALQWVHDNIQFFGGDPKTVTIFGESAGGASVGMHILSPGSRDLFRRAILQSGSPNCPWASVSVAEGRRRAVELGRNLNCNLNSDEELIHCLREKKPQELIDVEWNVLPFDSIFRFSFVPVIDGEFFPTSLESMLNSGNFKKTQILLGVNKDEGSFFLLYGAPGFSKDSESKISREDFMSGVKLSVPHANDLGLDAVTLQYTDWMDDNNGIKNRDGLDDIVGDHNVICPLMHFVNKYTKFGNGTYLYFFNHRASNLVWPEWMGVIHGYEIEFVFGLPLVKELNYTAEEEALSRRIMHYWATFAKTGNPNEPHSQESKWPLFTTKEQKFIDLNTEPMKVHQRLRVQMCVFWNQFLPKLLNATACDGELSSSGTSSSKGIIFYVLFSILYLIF
Chain of Acetylcholinesterase (Homo sapiens, UniProt P22303) (P22303 whole entry): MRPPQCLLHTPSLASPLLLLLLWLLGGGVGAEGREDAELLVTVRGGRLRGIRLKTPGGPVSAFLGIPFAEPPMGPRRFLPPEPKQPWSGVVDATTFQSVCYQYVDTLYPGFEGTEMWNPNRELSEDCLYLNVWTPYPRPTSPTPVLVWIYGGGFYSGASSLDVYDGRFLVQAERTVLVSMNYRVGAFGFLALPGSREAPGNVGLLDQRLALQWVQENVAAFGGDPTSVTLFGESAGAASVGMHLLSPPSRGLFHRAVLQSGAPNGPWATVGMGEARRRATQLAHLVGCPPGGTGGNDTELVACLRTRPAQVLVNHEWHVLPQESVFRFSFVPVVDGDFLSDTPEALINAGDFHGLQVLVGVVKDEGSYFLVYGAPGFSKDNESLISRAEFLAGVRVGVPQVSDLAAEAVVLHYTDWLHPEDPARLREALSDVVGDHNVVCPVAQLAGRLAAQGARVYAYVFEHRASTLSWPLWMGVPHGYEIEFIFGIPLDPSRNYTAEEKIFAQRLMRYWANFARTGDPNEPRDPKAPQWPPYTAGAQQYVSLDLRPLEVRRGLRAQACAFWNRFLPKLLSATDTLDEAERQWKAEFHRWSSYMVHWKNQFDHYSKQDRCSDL

The compound `COc1cccc([N+](C)(C)C)c1` gave a pIC50 on Acetylcholinesterase [1] of 3.22.

On Acetylcholinesterase [1], `CCC(=O)Oc1cccc([N+](C)(C)C)c1` had a pIC50 of 5.22.

`CCC(=O)Oc1ccc(C)c([N+](C)(C)C)c1` had a pIC50 on Acetylcholinesterase [1] of 4.16.

`CCC(=O)Oc1cccc([N+](C)(C)C)c1C`: the pIC50 against Acetylcholinesterase [1] is 3.12.

Compound `CC(=O)Oc1cccc([N+](C)(C)C)c1C` gave a negative-log IC50 (pIC50) at Acetylcholinesterase [1] of 4.39.

On Acetylcholinesterase [1], `COc1ccc(C)c([N+](C)(C)C)c1` showed a pIC50 of 3.46.

With `Cc1ccc([N+](C)(C)C)cc1O`, the pIC50 at Acetylcholinesterase [1] was 5.51.

On to `Cc1ccc(O)cc1[N+](C)(C)C`, for which, at Acetylcholinesterase [1], the negative logarithm of the IC50 (pIC50) was 5.55.

For `CCC(=O)Oc1cc([N+](C)(C)C)ccc1C`, on Acetylcholinesterase [1], the pIC50 is 5.42.

The compound `COc1cc([N+](C)(C)C)ccc1C` gave a pIC50 on Acetylcholinesterase [1] of 3.91.

In turn, `CC(=O)Oc1cc([N+](C)(C)C)ccc1C` showed a pIC50 against Acetylcholinesterase [1] of 6.18.

As to `C[N+](C)(C)CCCBr`, the negative-log IC50 (pIC50) at Acetylcholinesterase [2] is 4.06.

As for `CC(C)(C)[C@@]1(O)C[N+](C)(C)CCO1`, the pIC50 on Acetylcholinesterase [2] was 2.43.

`C[N+]1(C)CCO[C@@](O)(c2ccc(Cl)cc2)C1`: the pIC50 at Acetylcholinesterase [2] was 2.09.

The compound `C=CCC[N+](C)(C)C` had a negative-log IC50 (pIC50) against Acetylcholinesterase [2] of 3.07.

At Acetylcholinesterase [2], `C[C@@]1(O)C[N+](C)(C)CCO1` gave a pIC50 of 2.76.

`C[N+](C)(C)c1cccc(N)c1` showed a negative-log IC50 (pIC50) on Acetylcholinesterase [2] of 3.72.

As to `CCCC(=O)OCC[N+](C)(C)C`, the pIC50 at Acetylcholinesterase [2] was 3.64.

As to `C[N+](C)(C)CCS`, the negative logarithm of the IC50 (pIC50) against Acetylcholinesterase [2] is 3.36.

For `CCOCC[N+](C)(C)C`, the pIC50 against Acetylcholinesterase [2] is 2.94.

Compound `C[N+](C)(C)c1cccc([N+](=O)[O-])c1` gave a pIC50 against Acetylcholinesterase [3] of 3.20.

As to `C=CCCCN(C)C`, the pIC50 at Acetylcholinesterase [2] was 2.95.

With `CCCC(=O)SCC[N+](C)(C)C`, the pIC50 against Acetylcholinesterase [2] was 3.90.

Consider `C[N+](C)(C)CCCCI`, for which the pIC50 at Acetylcholinesterase [2] was 3.33.

The compound `C[N+]1(C)CCO[C@H](O)C1` gave a negative logarithm of the IC50 (pIC50) against Acetylcholinesterase [2] of 2.75.

The compound `C[N+]1(C)CCO[C@@](O)(c2ccc(N)cc2)C1` showed a pIC50 against Acetylcholinesterase [2] of 3.16.

For `CC(=O)CCC[N+](C)(C)C`, the pIC50 at Acetylcholinesterase [2] was 4.07.

On Acetylcholinesterase [2], `CCCCCC[N+](C)(C)C` had a pIC50 of 3.09.

Consider `CCSCC[N+](C)(C)C`, for which the negative logarithm of the IC50 (pIC50) at Acetylcholinesterase [2] is 2.82.

For the compound `C[N+](C)(C)CCCCCBr`, the pIC50 on Acetylcholinesterase [2] is 3.27.

Turning to `COc1cccc([N+](C)(C)C)c1C`, the negative logarithm of the IC50 (pIC50) against Acetylcholinesterase [1] was 3.62.

As to `CC(=O)Oc1ccc(C)c([N+](C)(C)C)c1`, the pIC50 at Acetylcholinesterase [1] is 5.27.

`CC(=O)Nc1cccc([N+](C)(C)C)c1` gave a negative-log IC50 (pIC50) on Acetylcholinesterase [2] of 3.00.

For the compound `C[N+]1(C)CCO[C@@](O)(c2ccc(C#N)cc2)C1`, the pIC50 against Acetylcholinesterase [2] is 1.94.

`Cc1c(O)cccc1[N+](C)(C)C` showed a pIC50 against Acetylcholinesterase [1] of 3.85.

Turning to `CC(=O)Oc1cccc([N+](C)(C)C)c1`, the pIC50 against Acetylcholinesterase [1] was 5.52.

With `C=CC[N+](C)(C)C`, the pIC50 at Acetylcholinesterase [2] is 2.53.

`C[N+]1(C)CCO[C@@](O)(C(F)(F)F)C1`: the negative logarithm of the IC50 (pIC50) against Acetylcholinesterase [2] was 2.42.

The compound `CC(=O)Nc1ccc([C@@]2(O)C[N+](C)(C)CCO2)cc1` had a negative-log IC50 (pIC50) against Acetylcholinesterase [2] of 2.68.

At Acetylcholinesterase [2], `C[N+](C)(C)CCCCBr` showed a pIC50 of 3.22.

At Acetylcholinesterase [1], `C[N+](C)(C)c1cccc(O)c1` had a negative-log IC50 (pIC50) of 6.01.

Take `C[N+]1(C)CCO[C@@](O)(c2ccc([N+](=O)[O-])cc2)C1`: the pIC50 at Acetylcholinesterase [2] is 2.29.

For `CNC(=O)Oc1ccc2c(c1)[C@]1(C)CC[N+](C)(C)C1N2C` (some centres not stated), the pIC50 against Acetylcholinesterase [4] was 7.47.

`CN1CC[C@@]2(C)c3cc(OC(=O)Nc4ccccc4)ccc3N(C)C12` (some centres not stated) showed a pIC50 at Acetylcholinesterase [4] of 6.46.

`CN(C)C(=O)Oc1ccc2c(c1)[C@]1(C)CCN(C)C1N2C` (some centres not stated) gave a pIC50 against Acetylcholinesterase [4] of 6.01.

In the case of `CN1CC[C@@]2(C)c3cc(OC(=O)Nc4ccc(Cl)cc4)ccc3N(C)C12` (some centres not stated), at Acetylcholinesterase [4], the pIC50 was 5.74.

In turn, `CCCCNC(=O)Oc1ccc2c(c1)[C@]1(C)CCN(C)C1N2C` (some centres not stated) had a pIC50 on Acetylcholinesterase [4] of 6.82.

`CC(C)NC(=O)Oc1ccc2c(c1)[C@]1(C)CCN(C)C1N2C` (some centres not stated) showed a negative logarithm of the IC50 (pIC50) against Acetylcholinesterase [4] of 4.46.

On Acetylcholinesterase [4], `CCN(CC)C(=O)Oc1ccc2c(c1)[C@]1(C)CCN(C)C1N2C` (some centres not stated) showed a pIC50 of 4.40.

For `CN(C(=O)NCc1ccccc1)C(=O)Oc1ccc2c(c1)[C@]1(C)CCN(C)C1N2C` (some centres not stated), on Acetylcholinesterase [4], the pIC50 was 5.20.

Consider `CN1CC[C@@]2(C)c3cc(OC(=O)NCc4ccccc4)ccc3N(C)C12` (some centres not stated), for which, on Acetylcholinesterase [4], the negative logarithm of the IC50 (pIC50) is 6.34.

On Acetylcholinesterase [2], `C[N+](C)(C)CCCl` [CHLORMEQUAT CHLORIDE] showed a negative logarithm of the IC50 (pIC50) of 2.62.
